These results are taken from patent publication US10226451B2, “Substituted bicyclic compounds as bromodomain inhibitors” (ZENITH EPIGENETICS LTD, priority 2013, dated 2019).

Molecules are shown by their SMILES.

One assay deals with hIL-6 mRNA in U937 cells. In words: Inhibition of hIL-6 mRNA transcription in LPS-stimulated U937 cells. The format is cell-based. The settings on record: Homo sapiens, U-937, PMA-differentiated U937 cells, LPS 1 ug/mL, 3 h, read-out: IL-6 activity. The method in brief: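 U937 cells were differentiated to macrophages with 60 ng/mL PMA for 3 days, pretreated 1 h with compound in 0.1% DMSO, then stimulated with 1 ug/mL E. coli LPS for 3 h at 37° C. hIL-6 mRNA was quantified by one-step TaqMan RT-qPCR, normalized to cyclophilin, as fold expression versus control.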

In assay [1] the test system is hApoA-I mRNA in Huh7 cells. In words: Up-regulation of hApoA-1 mRNA transcription in Huh7 cells. The settings on record: EC170, Huh7 cells, 48 h. The format is cell-based, Human. How it is done:
In this example, hApoA-I mRNA in tissue culture cells was quantitated to measure the transcriptional up-regulation of hApoA-I when treated with a compound of the present disclosure.
Huh7 cells (2.5×10^5 per well) were plated in a 96-well plate using 100 μL DMEM per well, (Gibco DMEM supplemented with penicillin/streptomycin and 10% FBS), 72 h before the addition of the compound. The cells are treated with increasing concentrations of the compound or DMSO (0.1%), and incubated at 37° C., 5% CO2 for 48 h. Spent media was removed from the Huh-7 cells and placed on ice for immediate use with the “LDH cytotoxicity assay Kit II” from Abcam. The cells remaining in the plate were rinsed with 100 μL PBS. Cells were harvested using the mRNA Catcher PLUS kit according to manufacturer's instructions. The eluted mRNA was then used in a one-step quantitative real-time PCR reaction, using components of the RNA UltraSense™ One-Step Kit (Life Technologies) together with Applied Biosystems TaqMan® primer-probes for hApoA-I and Cyclophilin. Real-time PCR plates were run on a ViiA™7 real time PCR machine (Applied Biosystems), data was analyzed, normalizing the Ct values for hApoA-1 to an internal control, prior to determining the fold induction of each unknown sample, relative to the control.

The target of assay [2] is T1, Brd4 bromodomain 1 (BRD4(1)) (Homo sapiens, UniProt O60885).
T1 construct: made in house; host or cells: E. coli BL21(DE3)
Briefly: Inhibition of tetra-acetylated histone H4 binding to Brd4 bromodomain 1 (HTRF/FRET). The following applies: tetra-acetylated histone H4 peptide, His-tagged bromodomain 200 nM, 2 h. In outline: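 Inhibition was read as a drop in 665 nm relative to 620 nm HTRF signal after 2 h at room temperature, with IC50 from dose-response curves in duplicate wells. Reactions held 200 nM E. coli-expressed His-tagged bromodomain and 25-50 nM biotinylated tetra-acetylated histone H4 peptide. Buffer was 30 mM HEPES pH 7.4 with KF, CHAPS, BSA and 0.2% DMSO.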

The test system of assay [3] is hIL-17 mRNA in human peripheral blood mononuclear cells. In words: Inhibition of hIL-17 mRNA transcription in OKT3-stimulated PBMC. The format is cell-based. The following applies: OKT3 antibody, 6 h, read-out: IL-17 activity. How it is done:
In this example, hIL-17 mRNA in human peripheral blood mononuclear cells were quantitated to measure the transcriptional inhibition of hIL-17 when treated with a compound of the present disclosure.
Human peripheral blood mononuclear cells were plated (2.0×10^5 cells per well) in a 96-well plate in 45 μL OpTimizer T Cell expansion media (Life Technologies) containing 20 ng/ml IL-2 and penicillin/streptomycin. The cells were treated with increasing concentrations of the test compound or DMSO (0.1%), and incubated at 37° C., 5% CO2 for 1 h before addition of 10× stock OKT3 antibody at 10 ug/ml in media. Triplicate wells were used for each concentration. Cells were incubated at 37° C., 5% CO2 for 6 h before the cells were harvested. At time of harvest, cells were pelleted by centrifugation at 800 rpm for 5 min. Cells were harvested using the mRNA Catcher PLUS kit according to manufacturer's instructions. The eluted mRNA was then used in a one-step quantitative real-time PCR reaction, using components of the RNA UltraSense™ One-Step Kit (Life Technologies) together with Applied Biosystems TaqMan® primer-probes for hIL-17 and Cyclophilin. Real-time PCR plates were run on a ViiA™7 real time PCR machine (Applied Biosystems), data was analyzed, normalizing the Ct values for hIL-17 to an internal control, prior to determining the fold induction of each unknown sample, relative to the control.

As to `Cc1noc(C)c1-c1cc(-c2c(C)nn(C)c2C)c2c(c1)[nH]c(=O)n2C` [Example Compound 9, 5-(3,5-dimethylisoxazol-4-yl)-1-methyl-7-(1,3,5-trimethyl-1H-pyrazol-4-yl)-1H-benzo[d]imidazol-2(3H)-one], the IC50 (in the assay on hIL-6 mRNA in U937 cells; in assay [2]; in assay [3]) was at most 300 nM throughout. The ApoA-1 activity entry in assay [1] is recorded as “+++ (EC170 value less than or equal to 0.3 μM were deemed to be highly active (+++))”.
